According to patent US7858649B2, “Imidazole derivatives and their use for modulating the GABAA receptor complex” (Neurosearch A/S, priority 2005, dated 2010):

Experiments:
[1] = target: benzodiazepine binding site on GABAA receptors (rat cerebral cortex membranes); assay: In vitro inhibition of 3H-flunitrazepam (3H-FNM) binding; details: inhibition of specific binding of 3H-FNM (1 nM), cerebral cortex membranes from male Wistar rats, 40 min at 2° C.
Procedure: In Vitro Inhibition of ^3H-flunitrazepam (^3H-FNM) Binding
The GABA recognition site and the benzodiazepine modulatory unit can selectively be labelled with ^3H-flunitrazepam.
Preparations are performed at 0-4° C. unless otherwise indicated. Cerebral cortex from male Wistar rats (150-200 g) is homogenised for 5-10 sec in 20 ml Tris-HCl (30 mM, pH 7.4) using an Ultra-Turrax homogeniser. The suspension is centrifuged at 27,000×g for 15 min and the pellet is washed three times with buffer (centrifuged at 27,000×g for 10 min). The washed pellet is homogenized in 20 ml of buffer and incubated on a water bath (37° C.) for 30 min to remove endogenous GABA and then centrifuged for 10 min at 27,000×g. The pellet is then homogenized in buffer and centrifuged for 10 min at 27,000×g. The final pellet is resuspended in 30 ml buffer and the preparation is frozen and stored at −20° C.
The membrane preparation is thawed and centrifuged at 2° C. for 10 min at 27,000×g. The pellet is washed twice with 20 ml 50 mM Tris-citrate, pH 7.1 using an Ultra-Turrax homogeniser and centrifuged for 10 min at 27,000×g. The final pellet is resuspended in 50 mM Tris-citrate, pH 7.1 (500 ml buffer per g of original tissue), and then used for binding assays. Aliquots of 0.5 ml tissue are added to 25 μl of test solution and 25 μl of ^3H-FNM (1 nM, final concentration), mixed and incubated for 40 min at 2° C. Non-specific binding is determined using Clonazepam (1 μM, final concentration). After incubation the samples are added 5 ml of ice-cold buffer and poured directly onto Whatman GF/C glass fibre filters under suction and immediately washed with 5 ml ice-cold buffer. The amount of radioactivity on the filters is determined by conventional liquid scintillation counting. Specific binding is total binding minus non-specific binding.
25-75% inhibition of specific binding must be obtained, before calculation of an IC50.
The test value will be given as IC50 (the concentration (μM) of the test substance which inhibits the specific binding of ^3H-FNM by 50%).
Co is specific binding in control assays, and […]

SMILES | IC50 [1] [nM] | melting point [°C]
Cc1noc(-c2cn(-c3cccc(-c4ccc(F)nc4)c3)cn2)n1 [2-Fluoro-5-{3-[4-(3-methyl-[1,2,4]oxadiazol-5-yl)-imidazol-1-yl]-phenyl}-pyridine] | 60 | –
Cc1noc(-c2cn(-c3cccc(-c4ccccc4OC(F)(F)F)c3)cn2)n1 [3-Methyl-5-[1-(2′-trifluoromethoxy-biphenyl-3-yl)-1H-imidazol-4-yl]-[1,2,4]oxadiazole] | 17 | 141.6 to 143.9
Cc1noc(-c2cn(-c3cccc(-c4ccccc4F)c3)cn2)n1 [3-Methyl-5-[1-(2′-fluoro-biphenyl-3-yl)-1H-imidazol-4-yl]-[1,2,4]oxadiazole] | 33 | –
Cc1noc(-c2cn(-c3cccc(Br)c3)cn2)n1 | – | 200.1 to 202.4
